Patent US10344026B2, “Compositions and methods of targeting mutant K-ras” (NANTBIO, INC., priority 2017, dated 2019)
Like-named read-outs stand apart in the source and are kept apart here.

Key:
Assay type in all cases: cell-based
[1] = tested on: phospho-ERK in Panc1 (G12D); assay: In-Cell Western phospho-ERK, Panc1; conditions: Homo sapiens, PANC-1, 1 h; Panc1, one hour treatment; read-out: In-Cell Western Panc1 (G12D) Erk (P)
Description: (§1) In-cell phosphorylation assays for Erk and Akt were performed on several of the compounds and exemplary results are shown in Table 3 below using HCC827 and A375 cell lines for wild type K-Ras and Panc1 and Panc10.05 cell lines for G12D K-Ras mutants. Results are expressed in μM and corresponding structures are shown in FIGS. 2A-2G and Examples 1-152, above.
(§2) Cells are seeded in complete medium into black sided, clear-bottom 384-well microplates at 3000 cells/[…]/well. Plates are returned to 37° C. CO2 incubator for 18 hr. Drug is made as 200× in DMSO and diluted into medium to 10×. To each well is added 4 ul 10× test article or controls, and plates are returned to the incubator. Final assay DMSO concentration is 0.5%. After one hour, cells are fixed in formaldehyde, rinsed & permeabilized with triton X-100, and blocked with BSA/Goat serum blocking solution. Primary phospho-Akt and phospho-ERK antibodies are added and plates are incubated overnight at 4° C. Plates are rinsed with Tween-20 wash buffer and secondary antibody (Goat anti-rabbit, Thermofisher) is added. After 2 hours, plates are rinsed in Tween-20 wash buffer, and then PBS. Plates are imaged on the Celigo (Nexcelom) and cellular fluorescence is quantitated. Full inhibition of phospho-Akt is achieved with 1 uM BEZ235 (Sellekchem), while full inhibition of phospho-ERK is achieved with 1 uM MEK Inhibitor II Calbiochem). EC50 values are calculated using Graphpad Prism.

Panc1-G12D = assay: Viability assay (CellTiterBlue, 72 hr) Panc1; conditions: Homo sapiens, PANC-1, GI50, CellTiterBlue, read-out: 72 hr Cell Viability Panc1 (G12D)
Description: (§3) Viability assays were performed on exemplary compounds and Table 2 below lists exemplary results for selected compounds tested on K-Ras wild type cell lines (Ishikawa, U87-MG, HCC827, and A375) and various K-Ras mutant cell lines (Panc1-G12D; Panc10.05-G12D; HCT116-G31D). Results are expressed in μM and corresponding structures are shown in FIGS. 2A-2G and Examples 1-152, above.
(§4) Cells are counted and seeded at 1000 cells/36 ul medium/well into 384-well microplates. Cells are returned to 37° C. CO2 incubator for 18 hr. Drug is made as 200× in DMSO and diluted into medium to 10×. To each well is added 4 ul 10× drug, and plates are returned to the incubator. Final assay DMSO concentration is 0.5%. After 72 hr, 8 ul CellTiterBlue (Promega) is added to each well. After 3 hr, fluorescence (Ex550/Em590) is determined on the Victor Plate Reader (Perkin Elmer). Assay range is determined by DMSO control (100% viability) and 100 uM tamoxifen (0% viability). GI50 values are calculated using Graphpad Prism.

[2] = tested on: phospho-Akt in Panc10.05 (G12D); assay: In-Cell Western phospho-Akt, Panc10.05; conditions: Homo sapiens, Panc1005, 1 h; Panc10.05, one hour treatment; read-out: In-Cell Western Panc10.05 (G12D) Akt (P)
Description: as §1, §2

HCT116-G31D = assay: Viability assay (CellTiterBlue, 72 hr) HCT116; conditions: Homo sapiens, HCT-116, GI50, CellTiterBlue, read-out: 72 hr Cell Viability HCT116 (G13D)
Description: as §3, §4

Panc10.05-G12D = assay: Viability assay (CellTiterBlue, 72 hr) Panc10.05; conditions: Homo sapiens, Panc1005, GI50, CellTiterBlue, read-out: 72 hr Cell Viability Panc10.05 (G12D)
Description: as §3, §4

[3] = tested on: phospho-ERK in Panc10.05 (G12D); assay: In-Cell Western phospho-ERK, Panc10.05; conditions: Homo sapiens, Panc1005, 1 h; Panc10.05, one hour treatment; read-out: In-Cell Western Panc10.05 (G12D) Erk (P)
Description: as §1, §2

[4] = tested on: U87-MG (K-Ras wild type cell line); assay: Viability assay (CellTiterBlue, 72 hr) U87-MG; conditions: Homo sapiens, U-87 MG, GI50, CellTiterBlue, U87-MG K-Ras wild-type
Description: as §3, §4

[5] = tested on: Ishikawa (K-Ras wild type cell line); assay: Viability assay (CellTiterBlue, 72 hr) Ishikawa; conditions: Homo sapiens, GI50, CellTiterBlue
Description: as §3, §4

K-Ras G12D = target: T1, K-Ras G12D (Homo sapiens, UniProt P01116, G12D); assay: G-LISA Ras activation, 293H cells transfected with G12D mutant; conditions: compound 1 hour
T1 construct: expressed in transfected cells; host or cells: 293H cells
Description: (§5) 293H cells were seeded in 6-wells at 0.6×10^6 cells per well and transfected next day with 5 μg of Ras wild-type, or G12C, G12D or G12V mutant DNA plasmid vector using transfection reagent Lipofectamine 3000. Next day cells were treated with 3.125-25 μM of Ras compounds for 1 hour. Wild-type transfected cells were subsequently treated with 100 ng/ml EGF for 2 minutes. Cells were washed once in ice-cold PBS, lysed in complete lysis buffer on ice, and processed by G-LISA according to Cytoskeleton protocol.

[6] = tested on: phospho-Akt in Panc1 (G12D); assay: In-Cell Western phospho-Akt, Panc1; conditions: Homo sapiens, PANC-1, 1 h; Panc1, one hour treatment; read-out: In-Cell Western Panc1 (G12D) Akt (P)
Description: as §1, §2

[7] = tested on: HCC827 (K-Ras wild type cell line); assay: Viability assay (CellTiterBlue, 72 hr) HCC827; conditions: Homo sapiens, GI50, CellTiterBlue
Description: as §3, §4

wild type K-Ras = target: T2, wild type K-Ras (Homo sapiens, UniProt P01116); assay: G-LISA Ras activation, 293H cells transfected with Ras wild-type, EGF stimulated; conditions: compound 1 hour, then 100 ng/ml EGF 2 minutes
T2 construct: expressed in transfected cells; host or cells: 293H cells
Description: as §5

T1 sequence (P01116 whole entry G12D): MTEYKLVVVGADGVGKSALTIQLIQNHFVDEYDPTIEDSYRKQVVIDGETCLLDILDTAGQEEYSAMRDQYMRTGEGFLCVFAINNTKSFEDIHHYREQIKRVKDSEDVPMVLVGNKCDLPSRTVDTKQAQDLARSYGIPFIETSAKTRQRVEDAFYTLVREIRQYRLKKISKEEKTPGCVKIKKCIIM
T2 sequence (P01116 whole entry): as the sequence (P01116 whole entry G12D) above, with D12G counted along it

| Structure (SMILES) | EC50 [1] | IC50 (Panc1-G12D; Panc1 K-Ras G12D) | EC50 [2] | IC50 (HCT116-G31D; HCT116 K-Ras G13D) | IC50 (Panc10.05-G12D; Panc10.05 K-Ras G12D) | EC50 [3] | IC50 [4] | IC50 ([5]; Ishikawa K-Ras wild-type) | IC50 (K-Ras G12D) | EC50 [6] | IC50 ([7]; HCC827 K-Ras wild-type) | IC50 (Panc1-G12D; Panc1 cells (K-Ras G12D)) | IC50 (HCT116-G31D; HCT116 cells (K-Ras G13D)) | IC50 (Panc10.05-G12D; Panc10.05 cells (K-Ras G12D)) | IC50 ([7]; HCC827 cells (K-Ras wild-type)) | IC50 ([5]; Ishikawa cells (K-Ras wild-type)) | IC50 (wild type K-Ras) |
| --- | --- | --- | --- | --- | --- | --- | --- | --- | --- | --- | --- | --- | --- | --- | --- | --- | --- |
| Cc1nc(NC(=O)Nc2ccccc2)sc1C(=O)Nc1nc(-c2ccc3c(c2)CCC(=O)N3)cs1 [Compound 15] | 2 µM | > 25 µM | > 25 µM | > 25 µM | 1.3 µM | > 25 µM | 15 µM | 15 µM | – | – | – | – | – | – | – | – | – |
| Cc1nc(CN)sc1C(=O)Nc1nc(-c2ccc3c(c2)CCC(=O)N3)cs1 [Compound 147, 2-(aminomethyl)-4-methyl-N-(4-(2-oxo-1,2,3,4-tetrahydroquinolin-6-yl)thiazol-2-yl)thiazole-5-carboxamide] | 12 µM | 17 µM | > 25 µM | > 25 µM | 12 µM | 14 µM | – | > 25 µM | > 25 µM | > 25 µM | – | – | – | – | – | – | – |
| Cc1nc(C2CCCCC2)sc1C(=O)Nc1nc(-c2ccc3c(c2)CCC(=O)N3)cs1 [Compound 146, 2-cyclohexyl-4-methyl-N-(4-(2-oxo-1,2,3,4-tetrahydroquinolin-6-yl)thiazol-2-yl)thiazole-5-carboxamide] | 5 µM | 13 µM | > 25 µM | > 25 µM | 8 µM | 9 µM | – | > 25 µM | – | > 25 µM | – | – | – | – | – | – | – |
| Cc1nc(C(=O)Nc2nc(-c3ccc4c(c3)CCC(=O)N4)cs2)c(C)o1 [Compound 9, 2,5-dimethyl-N-(4-(2-oxo-1,2,3,4-tetrahydroquinolin-6-yl)thiazol-2-yl)oxazole-4-carboxamide] | > 25 µM | > 25 µM | > 25 µM | > 25 µM | > 25 µM | > 25 µM | – | > 25 µM | – | > 25 µM | > 25 µM | – | – | – | – | – | – |
| Cc1nc(C2CCN(C)CC2)sc1C(=O)Nc1nc(-c2ccc3c(c2)CCC(=O)N3)cs1 [Compound 16, 4-methyl-2-(1-methylpiperidin-4-yl)-N-(4-(2-oxo-1,2,3,4-tetrahydroquinolin-6-yl)thiazol-2-yl)thiazole-5-carboxamide] | – | 3 µM | > 25 µM | 9 µM | 11 µM | – | > 25 µM | > 25 µM | – | > 25 µM | – | – | – | – | – | – | – |
| Cc1cn(C)nc1C(=O)Nc1nc(-c2ccc3c(c2)CCC(=O)N3)cs1 [Compound 23, 1,4-dimethyl-N-(4-(2-oxo-1,2,3,4-tetrahydroquinolin-6-yl)thiazol-2-yl)-1H-pyrazole-3-carboxamide] | > 25 µM | > 25 µM | > 25 µM | > 25 µM | 2 µM | > 25 µM | – | > 25 µM | – | > 25 µM | > 25 µM | – | – | – | – | – | – |
| Cc1ncccc1C(=O)Nc1nc(-c2ccc3c(c2)CCC(=O)N3)cs1 [Compound 17, 2-methyl-N-(4-(2-oxo-1,2,3,4-tetrahydroquinolin-6-yl)thiazol-2-yl)nicotinamide] | > 25 µM | 7 µM | 23 µM | > 25 µM | 4 µM | > 25 µM | – | > 25 µM | – | > 25 µM | > 25 µM | – | – | – | – | – | – |
| Cc1ncc(C(=O)Nc2nc(-c3ccc4c(c3)CCC(=O)N4)cs2)c(C)n1 [Compound 148, 2,4-dimethyl-N-(4-(2-oxo-1,2,3,4-tetrahydroquinolin-6-yl)thiazol-2-yl)pyrimidine-5-carboxamide] | > 25 µM | – | > 25 µM | – | – | > 25 µM | – | – | – | > 25 µM | – | 4 µM | > 25 µM | 2 µM | 11 µM | 18 µM | – |
| Cc1nc(C)c(C(=O)Nc2nc(-c3ccc4c(c3)CCC(=O)N4)cs2)s1 [Compound 1, 2,4-dimethyl-N-(4-(2-oxo-1,2,3,4-tetrahydroquinolin-6-yl)thiazol-2-yl)thiazole-5-carboxamide] | – | – | – | – | – | – | – | – | 9.3 µM | – | – | – | – | – | – | – | 3.8 µM |
| CCc1nc(C)c(C(=O)Nc2nc(-c3ccc4c(c3)CCC(=O)N4Cc3ccncc3)cs2)o1 [Compound 65, 2-ethyl-4-methyl-N-(4-(2-oxo-1-(pyridin-4-ylmethyl)-1,2,3,4-tetrahydroquinolin-6-yl)thiazol-2-yl)oxazole-5-carboxamide] | > 25 µM | > 25 µM | – | > 25 µM | 15 µM | > 25 µM | > 25 µM | > 25 µM | – | > 25 µM | – | – | – | – | – | – | – |
| Cc1nc(NS(C)(=O)=O)sc1C(=O)Nc1nc(-c2ccc3c(c2)CCC(=O)N3)cs1 [Compound 13, 4-methyl-2-(methylsulfonamido)-N-(4-(2-oxo-1,2,3,4-tetrahydroquinolin-6-yl)thiazol-2-yl)thiazole-5-carboxamide] | – | > 25 µM | > 25 µM | 21 µM | > 25 µM | – | > 25 µM | > 25 µM | – | > 25 µM | – | – | – | – | – | – | – |
| CC(=O)Nc1nc(C)c(C(=O)Nc2nc(-c3ccc4c(c3)CCC(=O)N4)cs2)s1 [Compound 14, 2-acetamido-4-methyl-N-(4-(2-oxo-1,2,3,4-tetrahydroquinolin-6-yl)thiazol-2-yl)thiazole-5-carboxamide] | > 25 µM | > 25 µM | – | > 25 µM | 6 µM | 26 µM | > 25 µM | > 25 µM | – | > 25 µM | – | – | – | – | – | – | – |
| Cc1nc(C)c(C(=O)Nc2nc(-c3ccc4c(c3)CCC(=O)N4)cs2)o1 [Compound 4, 2,4-dimethyl-N-(4-(2-oxo-1,2,3,4-tetrahydroquinolin-6-yl)thiazol-2-yl)oxazole-5-carboxamide] | – | – | – | – | – | – | – | – | 10.9 µM | – | – | – | – | – | – | – | 25.1 µM |
| Cc1nc(C)c(C(=O)Nc2nc(-c3ccc4c(c3)CCC(=O)N4)c(Cl)s2)s1 [Compound 144, N-(5-chloro-4-(2-oxo-1,2,3,4-tetrahydroquinolin-6-yl)thiazol-2-yl)-2,4-dimethylthiazole-5-carboxamide] | 6 µM | 8 µM | > 25 µM | > 25 µM | 10 µM | 10 µM | 11 µM | > 25 µM | – | 16 µM | – | – | – | – | – | – | – |
